From patent US6747013B2, “Therapy for cellular accumulation in chronic inflammatory diseases” (The Regents of the University of California, priority 1995, dated 2004)
Numbered stars: 1 amine (or outer) side, 2 acyl side, 3 side chain; on linkers, the order of the positions; unused ones are H or OH. Bridge positions count the residues as written; N and C are the ends. Square brackets hold non-standard residues; d marks the D form. Peptide text beside a SMILES is read from it. I, II: the chains in the order shown. Actinocin(9to1) = Cc1c2oc3c(C)ccc(C(=O)[*:1])c3nc-2c(C(=O)[*:2])c(N)c1=O; NMeV = CN[C@H](C(=O)O)C(C)C; Sar = CNCC(=O)O

B1: IFN-gamma: recombinant human IFN-gamma, cytokine purchased from Genzyme (protein, UniProt P01579 24-161, looked up)
Interferon gamma: QDPYVKEAENLKKYFNAGHSDVADNGTLFLGILKNWKEESDRKIMQSQIVSFYFKLFKNFKDDQSIQKSVETIKEDMNVKFFNSNKKKRDDFEKLTNYSVTDLNVQRKAIHELIQVMAELSPAAKTGKRKRSQMLFRG

How the values were obtained:
Fas on FLS = test: Surface Fas expression on FLS by flow cytometry (FACS); format: cell-based, human; settings: IL-1beta 1 ng/ml or TNF-alpha 100 ng/ml for 16 to 24 hours; pooled RA and OA FLS
Protocol: FLS (1-2×105) were cultured in 6-well plastic dishes (Costar, Cambridge, Mass.) in DMEM-10% FCS. Cells were harvested with 5 mM EDTA at 4° C. and stained with anti-fas or control antibody (Kamiya Biomedical Co., Thousand Oaks, Calif.) as previously described (Alvaro-Gracia, et al., supra). Phycoerythrin conjugated Fab2 anti-mouse IgG (Tago Inc. Burlingame, Calif.) was used as a secondary antibody. An isotype matched MAb was used as negative control. Induction of Fas expression by cytokines was calculated from the mean fluorescence channels (MFC) as follows: relative MFC=(MF(Ccytokine-MFClgG)/(MFCmedium-MFClgG). A cell was defined a positive if its MFC was greater than 98% of cells stained with the control antibody. Statistical analysis. Data were analyzed using the paired Student t test and are presented as mean+SEM.
Since anti-fas antibody induced DNA fragmentation in FLS, fas expression was determined on these cells using flow cytometry. Many FLS constitutively expressed Fas protein on the cell surface (see FIG. 9 for a representative experiment (n=7; 4 rheumatoid arthritis and 3 osteoarthritis)). There were no significant differences between osteoarthritis and rheumatoid arthritis FLS with regard to the level of surface Fas expression on resting synoviocytes. […]

[1] = test system: fibroblast-like synoviocytes (FLS); test: ISEL assay of apoptosis (DNA fragmentation) in cultured fibroblast-like synoviocytes; format: cell-based, human; settings: for % apoptotic cells Without IFN-gamma (100 U/ml) / % apoptotic cells With IFN-gamma: FLS incubated with mediator for 16 h, n = 3, ISEL assay; for % apoptotic cells Without IFN-gamma (100 U/ml): 'Without IFN-gamma (100 U/ml)' [sic]; for % apoptotic cells With IFN-gamma: concentrations: IL-1 1 ng/ml, TNF-alpha 100 ng/ml, act D 0.5 ug/ml, anti-fas 80 ng/ml; for DNA fragmentation in FLS (ISEL assay), in words: cultured FLS in chamber slides, agent alone; for effect of combination on FLS apoptosis, in words: in combination with other apoptosis-inducing factors
Protocol: Fragmented DNA was detected in cell nuclei using a modification of previously described methods (Wood et a., Neuron., 11:621-32, 1993 and Wijsman et al., J. Histochem. Cytochem. 41:7-12, 1993). Frozen section of synovial tissue (5-6 microns thick) were placed onto poly-L-lysine coated slides and air dried for at least 2 hours. The tissue sections were then fixed with EtOH/Acetic acid 3:1 for 10 min at room temperature and washed with buffer 1 (see below) for 5 min. The slides were then air dried 1 or at least 2 h. 10-15 ul of DNA polymerase mix were added to each section and incubated at room temperature for 1 h. The sections were washed with buffer 1 (see below) for 5 min at room temperature followed by a wash in buffer 2 for 5 min.
Alkaline phosphatase conjugated anti-digoxigenin antibody was diluted to 1:500 in buffer 2 and 15-20 ul was applied to each specimen. The slides were incubated at 37° C. for 2 hrs in a humidified chamber and then washed with buffer 1 for 5 min. They were then equilibrated with buffer 3 for 5 min and the color reagent (NBT+BCIP) was added to the specimens. After about 30 min the slides were washed with distilled water, counterstained with eosin or methyl green and dehydrated with graded alcohol washes. The developing reagent gave a dark purple color for positive signals. Buffers: 10× DNA polymerase buffer=0.5M Tris.Cl pH7.5, 0.1M MgCl2, 1 mM DTT; 10× nucleotide mix=1 mM each of dATP, dCTP and dGTP, 0.4 mM dTTP; DNA polymerase mix=10× DNA pol buffer (2 ul), […] nucleotide mix (2 ul); 100 uM dig-11-dUTP (0.5 ul), Klenow polymerase (2 ul (2 U)), Water (13.5 ul); Buffer 1=100 mM Tris.Cl pH7.5, 150 mM NaCl; Buffer 2=0.5% Blocking agent in buffer 1, Buffer 3=100 […]. Quantification of ISEL assay. A semiquantitative scale was used to estimate the degree of ISEL staining in tissue sections that had been counterstained with methyl green to distinguish ISEL-positive and -negative cells. Four areas were reviewed by a blinded investigator: the synovial intimal lining, the sublining, blood vessels, and lymphoid aggregates. The extent of staining in the area was estimated and scored as using a previously established semiquantitative scale.
Synovial cells were isolated by enzymatic dispersion of synovial tissues as previously described (Alvaro-Gracia, et al., supra). Briefly, the tissues were minced and incubated with 1 mg/ml collagenase in serum-free DMEM (Gibco, Grand Island, N.Y.) for 2 h at 37° C., filtered through a nylon mesh, extensively washed, and cultured in DMEM supplemented with 10% fetal calf serum (FCS) (Gibco, endotoxin content <0.006 ng/ml), penicillin, streptomycin, and L-glutamine in a humidified 5% Co2 atmosphere. After overnight culture, non-adherent cells were removed and adherent cells were cultivated in DMEM plus 10% FCS.
At confluence, cells were trypsinized, split at a 1:3 ratio, and recultured in medium. Synoviocytes were used from passages 3 through 9 in these experiments, during which time they were a homogeneous population of fibroblast-like synoviocytes (FLS)(<1% CD11b, <1% phagocytic, and <1% Fc-gamma RII receptor positive).
(§1) The presence of CD68-negative apoptotic cells in the synovial lining prompted an analysis of the regulation of FLS apoptosis in vitro. […] Osteoarthritis and rheumatoid arthritis-derived FLS were equally susceptible to induction of DNA strand breaks.

Rheumatoid arthritis FLS = test: 3HdTr nuclear fragmentation assay; format: cell-based, human; settings: FIG. 8; cytokines or antibodies 8 h, act D 4 h
Protocol: Rheumatoid arthritis FLS were seeded at 10^4 cells/well in a 96-well microtiter plate. The cells were cultured at 37° C. and 5% CO2 for 2 days. On the third day, 10 uCi/ml/well of 3HdTR was added to each well and incubated overnight. The cells were then treated with different concentrations of cytokines or antibodies for 8 h or actinomycin D (act D) for 4 h and then lysed by 2 rounds of freeze-thaw cycles. Lysed cells and media were aspirated onto fiber glass filters using a cell harvester. The filters were washed to remove unincorporated nucleotides and counted in a liquid scintillation counter. All points were done in triplicates. Percent specific fragmentation was calculated as follows: (S-E)×100/S, where E=retained cpms on the filter in the presence of cytokine and S=retained cpms on the filter in the medium control (Matzinger, P., J. Immunological Methods 145:185-92, 1991).
as §1

p53 in RA FLS = settings: 8-9 hr after stimulating with H2O2 for 100 min; n=3; medium alone 10.7±2.4%
Protocol: (§2) The intracellular location of p53 protein is an important determinant of its functional capabilities. It is known that p53 can reside in the cytoplasm (generally bound to hsc70) but is transported to the nucleus after DNA damage or proliferative signals. […] Immunohistochemistry was then performed on cultured RA FLS to determine the subcellular localization of p53.

[2] = test system: p53 in dermal fibroblasts; settings: after exposure to H2O2; before 5±11%
Protocol: as §2

mouse air pouch tissue = test: Mouse air pouch model of inflammation with TUNEL staining; format: in vivo; settings: 3 ml of 1% carrageenan into pouch, two days after injection
Protocol: In this standard model, mice were lightly anesthetized with halothane and 3 ml of sterile filtered air was injected subcutaneously into the back, forming a pocket. This procedure was repeated twice over the next 5 days to form a mature pouch. Subsequently, 3 ml of 1% carrageenan was injected into the pouches. Carrageenan is a highly inflammatory natural substance that, when injected into body cavities, induces leukocyte recruitment, cytokine gene expression, and release of a variety of small molecule mediators. Two days after carrageenan injection, the mice were sacrificed and the pouches were removed. The excised pouches were fixed in formaldehyde and histologic sections were prepared. The sections were subsequently stained using the TUNEL technique (Wood, et al., Neuron, 11:621, 1993) to identify cells with fragmented DNA that were undergoing apoptosis.

Molecule	surface Fas expression on FLS, in words (Fas on FLS)	% apoptotic cells Without IFN-gamma (100 U/ml) [1]	% apoptotic cells With IFN-gamma [1]	DNA fragmentation in FLS (ISEL assay), in words [1]	DNA fragmentation in cultured FLS (3HdTr nuclear fragmentation), in words (Rheumatoid arthritis FLS)	effect of combination on FLS apoptosis, in words [1]	% of FLS with prominent nuclear p53 staining (p53 in RA FLS)	% of dermal fibroblasts with nuclear p53 staining [2]	TUNEL-positive cells in air pouch tissue, in words (mouse air pouch tissue)	inflammatory infiltration of the air pouch, in words (mouse air pouch tissue)
IL-1: Recombinant hIL-1 beta, cytokine purchased from Genzyme	slight increase, the difference did not reach statistical significance	0 ± 2 %	50 ± 2%	caused significant DNA fragmentation	caused DNA fragmentation	–	–	–	–	–
TNF-alpha	significantly increased surface Fas expression	3 ± 2 %	35 ± 1%	caused significant DNA fragmentation	caused DNA fragmentation	additive with actinomycin D	–	–	–	–
OO [hydrogen peroxide]	–	–	–	–	–	–	70.7±12.8%	75±17%	–	–
carrageenan	–	–	–	–	–	–	–	–	large foci of TUNEL-positive cells were present	an inflammatory exudate was present
Cc1c2oc3c(C)ccc(C(=O)N[C@@H]4C(=O)N[C@H](C(C)C)C(=O)N5CCC[C@H]5C(=O)N(C)CC(=O)N(C)[C@@H](C(C)C)C(=O)O[C@@H]4C)c3nc-2c(C(=O)N[C@@H]2C(=O)N[C@H](C(C)C)C(=O)N3CCC[C@H]3C(=O)N(C)CC(=O)N(C)[C@@H](C(C)C)C(=O)O[C@@H]2C)c(N)c1=O [actinomycin D, reference compound] (I: T[dV]P[Sar][NMeV] / II: T[dV]P[Sar][NMeV]; ester I:1-I:C, II:1-II:C; linker I:N-II:N via Actinocin(9to1))	–	6 ± 3 %	37 ± 5%	caused significant DNA fragmentation	caused DNA fragmentation	–	–	–	–	–
B1	–	6 ± 2%	–	minimal effect	–	significantly reduced FLS apoptosis	–	–	–	–
